Assay results: US20240208992A1, “MACROCYCLES AS CFTR MODULATORS” (Idorsia Pharmaceuticals Ltd, priority 2021, published 2024)
pEC50: −log10 of the molar value.

Molecular target: human F508del-CFTR (Homo sapiens, UniProt P13569, DEL508-508)
Test: F508del-CFTR cell surface expression (corrector activity), DiscoveRx ß-galactosidase complementation chemiluminescence assay in recombinant U2OS cell line;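 note: U2OS cells co-expressing ProLink-tagged F508del-CFTR and a membrane-anchored enzyme acceptor, where more surface CFTR restores β-galactosidase activity measured by chemiluminescence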
Settings: for pEC50: EC50, F508del-CFTR cell surface expression; for Emax: U2OS
[1] = U2OS cells, 16h compound incubation, geomean values
[2] = in relation to Emax of corrector lumacaftor (=100%), arithmetic mean values
[3] = U2OS cell line, 16h compound incubation, geomean values
[4] = in relation to the Emax of the corrector lumacaftor (=100%), U2OS cell line, 16h compound incubation, arithmetic mean values

Sequence of human F508del-CFTR (P13569 with tags, fused parts or gaps DEL508-508): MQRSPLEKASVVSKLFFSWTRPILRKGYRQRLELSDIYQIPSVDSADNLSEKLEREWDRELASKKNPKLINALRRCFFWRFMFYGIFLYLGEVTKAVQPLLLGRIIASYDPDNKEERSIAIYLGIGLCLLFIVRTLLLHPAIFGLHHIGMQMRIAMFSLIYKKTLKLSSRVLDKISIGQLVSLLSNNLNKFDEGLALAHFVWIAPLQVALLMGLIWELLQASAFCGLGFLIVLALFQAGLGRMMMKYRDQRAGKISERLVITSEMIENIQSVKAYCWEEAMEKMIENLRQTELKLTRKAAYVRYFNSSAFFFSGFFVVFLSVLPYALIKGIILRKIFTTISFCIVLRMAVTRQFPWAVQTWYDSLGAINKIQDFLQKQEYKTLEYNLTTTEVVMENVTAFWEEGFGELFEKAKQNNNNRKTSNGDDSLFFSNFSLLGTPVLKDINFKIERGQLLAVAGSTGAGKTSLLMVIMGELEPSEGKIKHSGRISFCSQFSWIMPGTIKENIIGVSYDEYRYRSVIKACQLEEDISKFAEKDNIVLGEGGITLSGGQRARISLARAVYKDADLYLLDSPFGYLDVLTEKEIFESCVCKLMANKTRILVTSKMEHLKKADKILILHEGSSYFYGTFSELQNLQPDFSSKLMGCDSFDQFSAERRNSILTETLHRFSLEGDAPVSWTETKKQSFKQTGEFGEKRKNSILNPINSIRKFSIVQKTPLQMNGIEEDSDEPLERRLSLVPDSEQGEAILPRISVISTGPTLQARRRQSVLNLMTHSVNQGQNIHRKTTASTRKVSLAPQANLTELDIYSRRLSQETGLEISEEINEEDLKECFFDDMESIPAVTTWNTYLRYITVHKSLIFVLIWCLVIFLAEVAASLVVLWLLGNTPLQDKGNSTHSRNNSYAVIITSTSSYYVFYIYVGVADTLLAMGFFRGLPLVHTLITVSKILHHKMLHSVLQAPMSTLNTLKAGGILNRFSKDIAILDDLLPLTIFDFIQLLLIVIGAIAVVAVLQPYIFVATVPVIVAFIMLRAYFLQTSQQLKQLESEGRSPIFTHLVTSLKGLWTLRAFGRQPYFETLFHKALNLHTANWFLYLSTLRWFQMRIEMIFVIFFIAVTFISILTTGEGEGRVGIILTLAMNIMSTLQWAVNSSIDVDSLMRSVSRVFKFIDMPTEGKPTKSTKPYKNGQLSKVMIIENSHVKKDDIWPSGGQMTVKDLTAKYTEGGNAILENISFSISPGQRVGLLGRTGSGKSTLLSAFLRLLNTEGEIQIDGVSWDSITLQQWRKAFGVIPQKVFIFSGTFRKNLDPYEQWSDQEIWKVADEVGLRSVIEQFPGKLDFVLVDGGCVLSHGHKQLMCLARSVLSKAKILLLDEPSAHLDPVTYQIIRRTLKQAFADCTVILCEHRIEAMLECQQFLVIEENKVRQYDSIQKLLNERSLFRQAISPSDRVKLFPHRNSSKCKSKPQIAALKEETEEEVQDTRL

SMILES	pEC50 [1]	Emax [2] [%]	pEC50 [3]	Emax [4] [%]	further results
COc1noc(CCNC(=O)[C@@H]2CC(=O)N(C)[C@@H](CC(C)C)C(=O)N(C)[C@@H](CC(F)(F)F)C(=O)N[C@H](Cc3ccccc3)COc3ccc4cnc(C)cc4c3C(=O)N2)n1 [Example 939, (3S,7S,10S,13R)-13-benzyl-7-isobutyl-N-(2-(3-methoxy-1,2,4-oxadiazol-5-yl)ethyl)-6,9,20-trimethyl-1,5,8,11-tetraoxo-10-(2,2,2-trifluoroethyl)-1,2,3,4,5,6,7,8,9,10,11,12,13,14-tetradecahydro-[1]oxa[4,7,10,14]tetraazacycloheptadecino[16,17-f]isoquinoline-3-carboxamide]	–	–	–	–	pEC50 (U2OS cells, 16h compound incubation, geomean of several measurements): 6.13; Emax (in relation to the Emax of the corrector lumacaftor (=100%), U2OS cells, 16h compound incubation, arithmetic mean): 288%
[2H]C([2H])([2H])Oc1nc(C)cc2c1C(=O)N[C@H](C(=O)NCCc1cnn(C3CC3)n1)CC(=O)N(C)[C@@H](CC(C)C)C(=O)N1CCCC[C@@H]1C(=O)N[C@H](Cc1ccccc1)CO2 [Example 685, (7S,11S,17aR,20R)-20-benzyl-N-(2-(2-cyclopropyl-2H-1,2,3-triazol-4-yl)ethyl)-11-isobutyl-4-(methoxy-d3)-]	6.30	234	–	–	–
CC(C)C[C@H]1C(=O)N2CCCC[C@@H]2C(=O)N[C@H](Cc2ccccc2)COc2cnc3ccccc3c2C(=O)N[C@H](C(=O)NCCc2cccc(-c3ncccn3)c2)CC(=O)N1C [Example 123, (9S,13S,19aR,22R)-22-benzyl-13-isobutyl-12-methyl-7,11,14,20-tetraoxo-N-(3-(pyrimidin-2-yl)phenethyl)-7,8,9,10,11,12,13,14,17,18,19,19a,20,21,22,23-hexadecahydro-16H-pyrido[2′,1′:6,7][1]oxa[4,7,10,14]tetraazacycloheptadecino[17,16-c]quinoline-9-carboxamide]	–	–	6.06	280	–
CC(C)C[C@H]1C(=O)N(CCC2CCCCC2)CC(=O)N[C@H](Cc2ccccc2)COc2ccncc2C(=O)N[C@H](C(=O)NCCc2ccc3c(c2)OCO3)CC(=O)N1C [Example 589, (3R,9S,13S)-N-(2-(benzo[d][1,3]dioxol-5-yl)ethyl)-3-benzyl-7-(2-cyclohexylethyl)-9-isobutyl-10-methyl-5,8,11,15-tetraoxo-2,3,4,5,6,7,8,9,10,11,12,13,14,15-tetradecahydropyrido[3,4-p][1]oxa[4,7,10,14]tetraazacycloheptadecine-13-carboxamide]	6.53	160	–	–	–
COc1cccc(CCNC(=O)[C@@H]2CC(=O)N(C)[C@@H](CC(C)C)C(=O)N3CCN(C(C)C)C[C@@H]3C(=O)N[C@H](Cc3ccccc3)COc3ccc4ncn(C)c4c3C(=O)N2)c1 [Example 353, (8S,12S,18aR,21R)-21-benzyl-12-isobutyl-17-isopropyl-N-(3-methoxyphenethyl)-5,11-dimethyl-6,10,13,19-tetraoxo-6,7,8,9,10,11,12,13,16,17,18,18a,19,20,21,22-hexadecahydro-5H,15H-imidazo[4′,5′:5,6]benzo[1,2-p]pyrazino[2,1-f][1]oxa[4,7,10,14]tetraazacycloheptadecine-8-carboxamide]	–	–	6.29	177	–
COc1nccc2c1C(=O)N[C@H](C(=O)NCCc1noc(C3CC3)n1)CC(=O)N(C)[C@@H](CC(C)C)C(=O)N(C)[C@@H](CCc1nc(-c3ccccc3)no1)C(=O)N[C@H](Cc1ccccc1)CO2 [Example 577, (3R,6S,9S,13S)-3-benzyl-N-(2-(5-cyclopropyl-1,2,4-oxadiazol-3-yl)ethyl)-9-isobutyl-16-methoxy-7,10-dimethyl-5,8,11,15-tetraoxo-6-(2-(3-phenyl-1,2,4-oxadiazol-5-yl)ethyl)-2,3,4,5,6,7,8,9,10,11,12,13,14,15-tetradecahydropyrido[3,4-p][1]oxa[4,7,10,14]tetraazacycloheptadecine-13-carboxamide]	6.22	268	–	–	–
COc1cc2c(cc1OC)C(=O)N[C@H](C(=O)NCCc1ccc3c(c1)OCO3)CC(=O)N(C)[C@@H](CC(C)C)C(=O)N(C[C@@H]1CCCCO1)CC(=O)N[C@H](Cc1ccccc1)CO2 [Example 160, (3R,9S,13S)-N-(2-(benzo[d][1,3]dioxol-5-yl)ethyl)-3-benzyl-9-isobutyl-17,18-dimethoxy-10-methyl-5,8,11,15-tetraoxo-7-(((S)-tetrahydro-2H-pyran-2-yl)methyl)-2,3,4,5,6,7,8,9,10,11,12,13,14,15-tetradecahydrobenzo[p][1]oxa[4,7,10,14]tetraazacycloheptadecine-13-carboxamide]	–	–	6.65	116	–
CC(C)C[C@H]1C(=O)N2CCN(C3CC3)C[C@H]2C(=O)N[C@H](Cc2ccccc2)COc2cnc3ccccc3c2C(=O)N[C@H](C(=O)NCCc2ccc3c(c2)OCO3)CC(=O)N1C [Example 392, (9S,13S,19aS,22R)-N-(2-(benzo[d][1,3]dioxol-5-yl)ethyl)-22-benzyl-18-cyclopropyl-13-isobutyl-12-methyl-7,11,14,20-tetraoxo-7,8,9,10,11,12,13,14,17,18,19,19a,20,21,22,23-hexadecahydro-16H-pyrazino[2′,1′:6,7][1]oxa[4,7,10,14]tetraazacycloheptadecino[17,16-c]quinoline-9-carboxamide]	–	–	6.49	144	–
CC(C)C[C@H]1C(=O)N2CCCC[C@@H]2C(=O)N[C@H](Cc2ccccc2)COc2cnc3ccc(F)cc3c2C(=O)N[C@H](C(=O)NCCc2cnn(C3CC3)n2)CC(=O)N1C [Example 665, (9S,13S,19aR,22R)-22-benzyl-N-(2-(2-cyclopropyl-2H-1,2,3-triazol-4-yl)ethyl)-5-fluoro-13-isobutyl-12-methyl-7,11,14,20-tetraoxo-7,8,9,10,11,12,13,14,17,18,19,19a,20,21,22,23-hexadecahydro-16H-pyrido[2′,1′:6,7][1]oxa[4,7,10,14]tetraazacycloheptadecino[17,16-c]quinoline-9-carboxamide]	6.92	323	–	–	–
CC(C)C[C@H]1C(=O)N2CCOC[C@@H]2C(=O)N[C@H](Cc2ccccc2)COc2ccc3ccccc3c2C(=O)N[C@H](C(=O)NCCc2nc(-c3ccccc3)no2)CC(=O)N1C [Example 69, (9S,13S,19aR,22R)-22-benzyl-13-isobutyl-12-methyl-7,11,14,20-tetraoxo-N-(2-(3-phenyl-1,2,4-oxadiazol-5-yl)ethyl)-7,8,9,10,11,12,13,14,16,17,19,19a,20,21,22,23-hexadecahydro-[1,4]oxazino[3′,4′:6,7][1]oxa[4,7,10,14]tetraazacycloheptadecino[17,16-c]quinoline-9-carboxamide]	–	–	6.34	262	–
COc1cccc(CCNC(=O)[C@@H]2CC(=O)N(C)[C@@H](CC(C)C)C(=O)N(C)CC(=O)N[C@H](Cc3ccccc3)COc3ccc4cnccc4c3C(=O)N2)c1 [Example 465]	6.10	387	–	–	–
CC(C)C[C@H]1C(=O)N(C)C2(CC2)C(=O)N[C@H](Cc2ccccc2)COc2cnc3ccccc3c2C(=O)N[C@H](C(=O)NCCc2cc(C(C)(C)C)on2)CC(=O)N1C [Example 119, (3′S,7′S,13′R)-13′-benzyl-N-(2-(5-(tert-butyl)isoxazol-3-yl)ethyl)-7′-isobutyl-6′,9′-dimethyl-1′,5′,8′,11′-tetraoxo-2′,3′,4′,5′,6′,7′,8′,9′,11′,12′,13′,14′-dodecahydro-1′H-spiro[cyclopropane-1,10′-[1]oxa[4,7,10,14]tetraazacycloheptadecino[17,16-c]quinoline]-3′-carboxamide]	–	–	6.48	248	–
CC(C)C[C@H]1C(=O)N(CCC2CCC3(CCC3)O2)CC(=O)N[C@H](Cc2ccccc2)COc2ccc3ccccc3c2C(=O)N[C@H](C(=O)NCCc2ccc3c(c2)OCO3)CC(=O)N1C (stereo partly drawn) [Example 331, (3S,7S,13R)-9-(2-(5-oxaspiro[3.4]octan-6-yl)ethyl)-N-(2-(benzo[d][1,3]dioxol-5-yl)ethyl)-13-benzyl-7-isobutyl-6-methyl-1,5,8,11-tetraoxo-1,2,3,4,5,6,7,8,9,10,11,12,13,14-tetradecahydronaphtho[1,2-p][1]oxa[4,7,10,14]tetraazacycloheptadecine-3-carboxamide]	–	–	6.92	240	–
COc1cccc2c1C(=O)N[C@H](C(=O)NCCc1ccc3c(c1)OCO3)CC(=O)N(C)[C@@H](CC(C)C)C(=O)N(CCC1CCCCC1)CC(=O)N[C@H](Cc1ccccc1)CO2 [Example 198, (3R,9S,13S)-N-(2-(benzo[d][1,3]dioxol-5-yl)ethyl)-3-benzyl-7-(2-cyclohexylethyl)-9-isobutyl-16-methoxy-10-methyl-5,8,11,15-tetraoxo-2,3,4,5,6,7,8,9,10,11,12,13,14,15-tetradecahydrobenzo[p][1]oxa[4,7,10,14]tetraazacycloheptadecine-13-carboxamide]	–	–	6.71	243	–
COc1cccc2c1C(=O)N[C@H](C(=O)NCCc1ccncn1)CC(=O)N(C)[C@@H](CC(C)C)C(=O)N(CCC1CCCCC1)CC(=O)N[C@H](Cc1ccccc1)CO2 [Example 19, (3R,9S,13S)-3-benzyl-7-(2-cyclohexylethyl)-9-isobutyl-16-methoxy-10-methyl-5,8,11,15-tetraoxo-N-(2-(pyrimidin-4-yl)ethyl)-2,3,4,5,6,7,8,9,10,11,12,13,14,15-tetradecahydrobenzo[p][1]oxa[4,7,10,14]tetraazacycloheptadecine-13-carboxamide]	–	–	6.13	125	–
CC(C)C[C@H]1C(=O)N(CCC2CCCCC2)CC(=O)N[C@H](Cc2ccccc2)COc2cc3c(cc2C(=O)N[C@H](C(=O)NCCc2ccc4c(c2)OCO4)CC(=O)N1C)OCO3 [Example 2, (7R,13S,17S)-N-(2-(benzo[d][1,3]dioxol-5-yl)ethyl)-7-benzyl-11-(2-cyclohexylethyl)-13-isobutyl-14-methyl-9,12,15,19-tetraoxo-6,7,8,9,10,11,12,13,14,15,16,17,18,19-tetradecahydro-[1,3]dioxolo[4′,5′:4,5]benzo[1,2-p][1]oxa[4,7,10,14]tetraazacycloheptadecine-17-carboxamide]	–	–	6.96	150	–
